Measurements from paper PMC11219860, “A chemogenetic approach for dopamine imaging with tunable sensitivity” (Nature Communications, 2024).
Like-named read-outs stand apart in the source and are kept apart here.

How the values were obtained:
[1] = test system: dLight1.3b; test: Two-photon dLight1.3b imaging in acute brain slices; design: species or system mouse
Description: Coronal brain slices (240 µm) containing the striatum and PFC were prepared from AAV-injected mice after 3–4 weeks of viral expression. Briefly, mice were deeply anesthetized with isoflurane and trans-cardially perfused with ice-cold cutting solution containing (in mM): 75 NaCl, 50 sucrose, 6 MgCl2, 2.5 KCl, 1.2 NaH2PO4, 0.1 CaCl2, 25 NaHCO3, and 2.5 D-glucose (bubbled with 5% CO2 in O2). The brain was quickly removed and sectioned using a vibrating blade microtome (VT1200S; Leica) before slices were transferred to an incubation chamber filled with artificial cerebrospinal fluid (ACSF) containing (in mM): 126 NaCl, 2.5 KCl, 1.2 MgCl2, 1.2 NaH2PO4, 2.5 CaCl2, 21.4 NaHCO3, 11.1 D-glucose and 10 µM MK-801 (34 °C, bubbled with 5% CO2 in O2, pH 7.4). After 45 min equilibration, slices were individually transferred to a recording chamber for 2 P imaging. NMDA, AMPA, GABA-A, nicotinic, and muscarinic receptors were blocked using 10 µM MK801, 10 µM DNQX, 100 µM picrotoxin, 1 µM DHBE, and 0.3 µM scopolamine, respectively. Changes of dLight fluorescence were measured by 2 P laser scanning microscopy, using a custom-built BX51WI microscope (Olympus). Excitation (920 nm) was provided by a pulsed Ti:Sapphire laser (Chameleon Ultra I; Coherent) and scanned using a pair of X-Y galvanometer mirrors (6215; Cambridge Technology). Emission was collected by a water immersion objective (60x, N.A. 1.00; Olympus) and filtered (ET680sp and ET525/50m-2P; Chroma) before detection by GaAsP photomultiplier tube (PMT, H10770PA-40; Hamamatsu). The temporal kinetics of fluorescence changes were captured using fast acquisition speed (2 kHz), ‘spot photometry’ (Toronado; B.W. Strowbridge), by scanning the laser around a circular path ([…] diameter) centered at the tip of the stimulating electrode or iontophoresis pipette which was visualized in the red channel (ET620/60 m; Chroma). The spatial dynamics of dLight fluorescence were captured by rasterized movie acquisition (30 × 40 µm, 3 Hz) and analyzed using ImageJ. Exogenous DA was applied by iontophoresis, using a thin-walled glass pipette filled with DA (1 M) and sulforhodamine 101 (300 µM), and ejected by short pulses of positive current ( + 20 to +200 nA, 5 ms) with a negative retention current to prevent DA leakage (−10 to −15 nA). Endogenous DA release was evoked by electrical stimulation using a double-tipped electrode pulled from septum theta glass capillaries (WPI), visualized with sulforhodamine 101 (10 µM). A single pulse (10 µA, 0.5 ms) was used to evoke DA release in striatal slices, while a train of stimuli (5 × 20 µA at 25 Hz) was used in cortical slices. Changes of fluorescence are expressed as ∆F/F0, wherein baseline fluorescence (F0) was measured from the 300 ms before DA stimulation in spot photometry measurements, or defined as the average of 10 frames preceding stimulation in rasterized movies. Peak ∆F/F0 was calculated by maximum peak detection from the time period following stimulation ( ~ 500 ms) or from the rasterized frame immediately following stimulation. Data were analyzed in AxoGraph (J. Clements) and ImageJ.

[2] = test system: 5-HT2B; design: method as in Svensson et al., 2017; Hao et al., 2019; details: 10 uM of DETQ; ref Svensson et al., 2017; Hao et al., 2019; cited from earlier work
[3] = design: method as in Bruns et al., 2018; details: ref Bruns et al., 2018, cited from earlier work

## C[C@H]1c2cccc(C(C)(C)O)c2C[C@H](CO)N1C(=O)Cc1c(Cl)cccc1Cl [DETQ, 2-(2,6-dichlorophenyl)-1-((1S,3R)-3-(hydroxymethyl)-5-(2-hydroxypropan-2-yl)-1-methyl-3,4-dihydroisoquinolin-2(1H)-yl)ethan-1-one]
[1]; 5 × 20 µA, 0.5 ms, 25 Hz, DETQ
  fluorescence changes evoked by train of stimuli in PFC slices: unmask small increases
[1]; DA iontophoresis 20 nA, DETQ 200 nM
  area of dLight1.3b ∆F/F0 >2σ noise: significantly increased
[1]; dorsal striatum slices, 10 µA, 0.5 ms, DETQ
  peak ∆F/F0 and area (>2σ noise) evoked by single electrical stimulation: significantly enhanced
[1]; ejection current 50 nA, DETQ 200 nM
  decay time of fluorescence changes (spot photometry): slowed
[1]; striatal slices, DA iontophoresis, DETQ 200 nM
  increase of dLight sensitivity (peak ∆F/F0 over ejection currents): 2.6 fold
[2]
  inhibition of ligand binding: 48%
[3]; hD1 mice, same dose
  brain levels of the histamine metabolites: significant elevations
[3]; wild type mice, 10 mg/kg PO
  brain levels of the histamine metabolites: did not change
